Source: patent US10457665B2, “1,4-di-(4-methylthiophenyl)-3-phtaloylazetidine-2-one and the derivatives thereof” (Universite De Nantes, priority 2015, dated 2019)

What was measured:
CB1R -/- mice = test: Acute oral glucose tolerance test (OGTT) in CB1R KO mice; assay type: in vivo, mouse; details: 10 mg/kg i.p., OGTT 2 g/kg
Procedure: In order to evaluate the short-term effects of the rimonabant-like molecules, as well as their selectivity for CB1R, wild-type C57BL/6 mice and CB1R −/− mice underwent an oral glucose tolerance test (OGTT at 2 g/kg) 10 min after i.p. injection of vehicle or of JM-02.003 or JM-00.266 (i.e., compound IA) (10 mg/kg). Blood glucose was measured at times t=0, t=15 min, t=30 min, t=45 min, t=60 min, t=90 min, and t=120 min post-oral. glucose administration using a Contour®TS blood glucose monitor (ref. 81574201, Bayer HealthCare) and reactive strips (ref. 81574274, Bayer HealthCare).

C57BL/6 mice = test: Gastrointestinal transit (charcoal), anandamide-induced inhibition; assay type: in vivo, mouse; details: 10 mg/kg i.p. with AEA 10 mg/kg i.p.
Procedure: Transit through the stomach and the intestine was measured via oral administration of vegetable charcoal suspended in gum arabic used herein as nonabsorbable marker. Briefly, following a short fast, C57BL/6 mice were injected intraperitoneally (i.p.) with anandamide (10 mg/kg) in the presence or absence of the molecule of interest JM-00.266 (i.e., compound IA) (10 mg/kg) before oral charcoal administration. 25 minutes later, the animals were sacrificed by cervical dislocation in order to entirely remove the intestine. The distance between the beginning of the pylorus and the location of the charcoal bolus was measured.

SMILES: CSc1ccc(C2C(N3C(=O)c4ccccc4C3=O)C(=O)N2c2ccc(SC)cc2)cc1 (stereo not drawn) [JM-00.266, trans-1,4-di-(4-methylthiophenyl)-3-N-phthaloyl-azetidine-2-one]
- improvement in glucose tolerance in CB1R KO mice (CB1R -/- mice): abolished
- effect on AEA-induced inhibition of gastrointestinal transit (C57BL/6 mice): completely abolishes the effect of the agonist and normalizes gastrointestinal transit
